Results: PubChem BioAssay AID256 (DTP/NCI, 2004)
Where “and” joins values, the source holds several entries; their conditions need not be identical. Identical values can stand only once. Inconclusive results and toxic doses are left out.

Test system: CD2F1 mice, L1210 leukemia ip, survival T/C
Experiment: NCI In Vivo Anticancer Drug Screen. Data for tumor model L1210 Leukemia (intraperitoneal) in CD2F1 (CDF1) mice
Conditions: higher = longer survival
How it was run: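 Antitumor effect is scored in animals hosting a serially transplanted tumor. Values compare compound-dosed animals against vehicle-only controls as a simple quotient.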

[1] = endpoint: mean survival time, dose: 100.0 mg/kg/injection, schedule: Q04DX002 (ip), vehicle: saline with Tween-80
[2] = endpoint: mean survival time, dose: 100.0 mg/kg/injection, schedule: Q01DX009 (ip), vehicle: saline

O=C(/C=C/c1ccccc1)NC(=S)NCc1ccccc1Cl
T/C (endpoint: mean survival time, dose: 50.0 mg/kg/injection, schedule: Q01DX009 (ip), vehicle: saline with Tween-80): 95 % of control and 96 % of control
T/C (endpoint: mean survival time, dose: 100.0 mg/kg/injection, schedule: Q01DX001 (ip), vehicle: saline with Tween-80): 94 % of control
T/C [1]: 95 % of control and 110 % of control
T/C (endpoint: mean survival time, dose: 200.0 mg/kg/injection, schedule: Q01DX001 (ip), vehicle: saline with Tween-80): 92 % of control
T/C (endpoint: mean survival time, dose: 200.0 mg/kg/injection, schedule: Q04DX002 (ip), vehicle: saline with Tween-80): 90 % of control and 95 % of control
T/C (endpoint: mean survival time, dose: 400.0 mg/kg/injection, schedule: Q01DX001 (ip), vehicle: saline with Tween-80): 95 % of control
T/C (endpoint: mean survival time, dose: 400.0 mg/kg/injection, schedule: Q04DX002 (ip), vehicle: saline with Tween-80): 98 % of control and 101 % of control

O=C(CCCl)Oc1ccc(Br)cc1
T/C (endpoint: mean survival time, dose: 100.0 mg/kg/injection, schedule: Q01DX009 (ip), vehicle: saline with Tween-80): 94 % of control
T/C (endpoint: mean survival time, dose: 100.0 mg/kg/injection, schedule: Q04DX003 (ip), vehicle: saline with Tween-80): 98 % of control
T/C (endpoint: mean survival time, dose: 200.0 mg/kg/injection, schedule: Q01DX009 (ip), vehicle: saline with Tween-80): 96 % of control
T/C (endpoint: mean survival time, dose: 200.0 mg/kg/injection, schedule: Q04DX003 (ip), vehicle: saline with Tween-80): 100 % of control
T/C (endpoint: mean survival time, dose: 400.0 mg/kg/injection, schedule: Q01DX009 (ip), vehicle: saline with Tween-80): 102 % of control
T/C (endpoint: mean survival time, dose: 400.0 mg/kg/injection, schedule: Q04DX003 (ip), vehicle: saline with Tween-80): 96 % of control

c1ccc(-c2nnc(-c3ccccn3)o2)nc1
T/C (endpoint: mean survival time, dose: 25.0 mg/kg/injection, schedule: Q04DX002 (ip), vehicle: saline with Tween-80): 102 % of control
T/C (endpoint: mean survival time, dose: 50.0 mg/kg/injection, schedule: Q04DX002 (ip), vehicle: saline with Tween-80): 98 % of control
T/C [1]: 107 % of control

CCOC1=NC(C)(C)CC(C)O1 (stereo unspecified)
T/C (endpoint: mean survival time, dose: 25.0 mg/kg/injection, schedule: Q01DX009 (ip), vehicle: saline): 109 % of control
T/C (endpoint: mean survival time, dose: 50.0 mg/kg/injection, schedule: Q01DX009 (ip), vehicle: saline): 109 % of control
T/C [2]: 103 % of control
T/C (endpoint: mean survival time, dose: 100.0 mg/kg/injection, schedule: Q04DX003 (ip), vehicle: saline): 97 % of control

CN(C)CCCN1c2ccccc2Sc2ccc(Cl)cc21
T/C (endpoint: mean survival time, dose: 12.5 mg/kg/injection, schedule: Q01DX001 (ip), vehicle: saline): 107 % of control
T/C (endpoint: mean survival time, dose: 12.5 mg/kg/injection, schedule: Q01DX009 (ip), vehicle: saline with Tween-80): 115 % of control
T/C (endpoint: mean survival time, dose: 25.0 mg/kg/injection, schedule: Q01DX001 (ip), vehicle: saline): 117 % of control
T/C (endpoint: mean survival time, dose: 25.0 mg/kg/injection, schedule: Q01DX009 (ip), vehicle: saline with Tween-80): 86 % of control
T/C (endpoint: mean survival time, dose: 50.0 mg/kg/injection, schedule: Q01DX001 (ip), vehicle: saline): 120 % of control
T/C (endpoint: mean survival time, dose: 100.0 mg/kg/injection, schedule: Q01DX001 (ip), vehicle: saline): 111 % of control
T/C (endpoint: mean survival time, dose: 200.0 mg/kg/injection, schedule: Q04DX003 (ip), vehicle: saline): 97 % of control
T/C (endpoint: median survival time, dose: 15.0 mg/kg/injection, schedule: Q01DX001 (ip), vehicle: water): 118 % of control and 107 % of control
T/C (endpoint: median survival time, dose: 25.0 mg/kg/injection, schedule: Q01DX001 (ip), vehicle: water): 119 % of control and 107 % of control
T/C (endpoint: median survival time, dose: 30.0 mg/kg/injection, schedule: Q04DX003 (ip), vehicle: saline): 80 % of control
T/C (endpoint: median survival time, dose: 50.0 mg/kg/injection, schedule: Q01DX001 (ip), vehicle: water): 114 % of control and 120 % of control
T/C (endpoint: median survival time, dose: 60.0 mg/kg/injection, schedule: Q04DX003 (ip), vehicle: saline): 80 % of control
T/C (endpoint: median survival time, dose: 75.0 mg/kg/injection, schedule: Q01DX001 (ip), vehicle: water): 114 % of control
T/C (endpoint: median survival time, dose: 120.0 mg/kg/injection, schedule: Q04DX003 (ip), vehicle: saline): 87 % of control

CSC(=CC(=O)c1ccccc1)SC
T/C (endpoint: mean survival time, dose: 75.0 mg/kg/injection, schedule: Q01DX001 (ip), vehicle: saline): 101 % of control
T/C (endpoint: mean survival time, dose: 150.0 mg/kg/injection, schedule: Q01DX001 (ip), vehicle: saline): 106 % of control

CCC1(O)C(=O)OCc2c1cc1n(c2=O)Cc2cc3cc4c(cc3nc2-1)OCO4 (stereo unspecified)
T/C (endpoint: median survival time, dose: 1.0 mg/kg/injection, schedule: Q01DX005 (ip), vehicle: saline with Tween-80): 192 % of control
T/C (endpoint: median survival time, dose: 2.0 mg/kg/injection, schedule: Q01DX005 (ip), vehicle: saline with Tween-80): 114 % of control
T/C (endpoint: median survival time, dose: 2.0 mg/kg/injection, schedule: Q04DX002 (ip), vehicle: saline with Tween-80): 325 % of control
T/C (endpoint: median survival time, dose: 4.0 mg/kg/injection, schedule: Q01DX005 (ip), vehicle: saline with Tween-80): 101 % of control
T/C (endpoint: median survival time, dose: 4.0 mg/kg/injection, schedule: Q04DX002 (ip), vehicle: saline with Tween-80): 190 % of control and 228 % of control
T/C (endpoint: median survival time, dose: 16.0 mg/kg/injection, schedule: Q04DX002 (ip), vehicle: saline with Tween-80): 115 % of control and 124 % of control
T/C (endpoint: median survival time, dose: 32.0 mg/kg/injection, schedule: Q04DX002 (ip), vehicle: saline with Tween-80): 97 % of control

c1ccc2c(c1)Sc1cnccc1N2CC1CO1 (stereo unspecified)
T/C [2]: 102 % of control
T/C (endpoint: mean survival time, dose: 200.0 mg/kg/injection, schedule: Q01DX009 (ip), vehicle: saline): 102 % of control
T/C (endpoint: mean survival time, dose: 400.0 mg/kg/injection, schedule: Q01DX009 (ip), vehicle: saline): 104 % of control
